Substitutions are numbered along the chain they refer to. Read-outs that look alike come from different tables or passages of the source.
What was measured:
mAhR [1] = target: T1, mAhR (Mus musculus, UniProt P30561); assay: biochemical; conditions: wild-type mAhR
T1 construct: made in house; host or cells: in vitro transcription/translation (rabbit reticulocyte lysate)
Experimental: (§1) Wild-type and mutant mAhRs and mARNT were synthesized in vitro in the presence of unlabeled L-methionine, the resulting mAhRs and mARNT translation mixtures and MEDGK (25 mM MOPS (3-(N-morpholino)propanesulfonic acid; pH 7.5), 1 mM EDTA, 1 mM dithiothreitol, 10% (v/v) glycerol, 150 mM KCl) were mixed in a 1:1:8 (v/v/v) ratio and incubated with DMSO (1% final concentration) or the indicated concentration of TCDD or test chemical for 2 hours at room temperature. An aliquot of each incubation was mixed with [^32P]-labeled double-stranded oligonucleotide containing the mouse AhR DNA binding site DRE3 (a dioxin responsive element from the upstream region of the murine Cyp1a1 gene[71]) and protein-DNA complexes resolved by gel retardation analysis as previously described in detail. Gels were visualized using a FLA9000 Fujifilm Imager and protein-DNA complexes quantitated with Fujifilm MultiGauge software. For potency measurements, reactions were incubated with increasing concentrations of the test chemical and the chemical concentration producing half maximal AhR:ARNT:DRE complex formation (EC50) determined.
T1 sequence (P53762 whole entry partner, one chain of several): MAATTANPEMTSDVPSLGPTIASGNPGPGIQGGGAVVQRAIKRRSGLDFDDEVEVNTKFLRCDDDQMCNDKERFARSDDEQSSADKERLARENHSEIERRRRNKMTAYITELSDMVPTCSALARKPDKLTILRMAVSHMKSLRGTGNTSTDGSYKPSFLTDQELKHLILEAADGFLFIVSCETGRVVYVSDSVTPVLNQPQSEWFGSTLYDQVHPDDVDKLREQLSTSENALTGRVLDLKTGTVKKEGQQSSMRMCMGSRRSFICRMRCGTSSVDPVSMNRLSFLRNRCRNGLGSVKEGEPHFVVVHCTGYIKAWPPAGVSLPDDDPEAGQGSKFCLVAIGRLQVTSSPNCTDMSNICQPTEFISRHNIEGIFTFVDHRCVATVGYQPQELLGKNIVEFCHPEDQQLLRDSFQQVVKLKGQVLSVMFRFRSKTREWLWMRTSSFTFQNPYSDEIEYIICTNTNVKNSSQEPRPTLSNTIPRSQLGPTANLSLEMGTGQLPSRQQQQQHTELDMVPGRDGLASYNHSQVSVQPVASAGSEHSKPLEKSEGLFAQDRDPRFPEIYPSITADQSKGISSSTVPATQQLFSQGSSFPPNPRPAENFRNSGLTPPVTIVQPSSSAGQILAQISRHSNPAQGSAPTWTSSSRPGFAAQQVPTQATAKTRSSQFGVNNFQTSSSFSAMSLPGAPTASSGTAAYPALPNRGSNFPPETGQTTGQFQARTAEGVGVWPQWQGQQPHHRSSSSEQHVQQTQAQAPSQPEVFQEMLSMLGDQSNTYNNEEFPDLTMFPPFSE

mAhR [2] = target: T2, mAhR (Mus musculus, UniProt P30561); assay: biochemical; type: binding
T2 construct: made in house; host or cells: in vitro, Promega TNT Quick coupled transcription/translation rabbit reticulocyte lysate
T2 sequence (P30561 10-848): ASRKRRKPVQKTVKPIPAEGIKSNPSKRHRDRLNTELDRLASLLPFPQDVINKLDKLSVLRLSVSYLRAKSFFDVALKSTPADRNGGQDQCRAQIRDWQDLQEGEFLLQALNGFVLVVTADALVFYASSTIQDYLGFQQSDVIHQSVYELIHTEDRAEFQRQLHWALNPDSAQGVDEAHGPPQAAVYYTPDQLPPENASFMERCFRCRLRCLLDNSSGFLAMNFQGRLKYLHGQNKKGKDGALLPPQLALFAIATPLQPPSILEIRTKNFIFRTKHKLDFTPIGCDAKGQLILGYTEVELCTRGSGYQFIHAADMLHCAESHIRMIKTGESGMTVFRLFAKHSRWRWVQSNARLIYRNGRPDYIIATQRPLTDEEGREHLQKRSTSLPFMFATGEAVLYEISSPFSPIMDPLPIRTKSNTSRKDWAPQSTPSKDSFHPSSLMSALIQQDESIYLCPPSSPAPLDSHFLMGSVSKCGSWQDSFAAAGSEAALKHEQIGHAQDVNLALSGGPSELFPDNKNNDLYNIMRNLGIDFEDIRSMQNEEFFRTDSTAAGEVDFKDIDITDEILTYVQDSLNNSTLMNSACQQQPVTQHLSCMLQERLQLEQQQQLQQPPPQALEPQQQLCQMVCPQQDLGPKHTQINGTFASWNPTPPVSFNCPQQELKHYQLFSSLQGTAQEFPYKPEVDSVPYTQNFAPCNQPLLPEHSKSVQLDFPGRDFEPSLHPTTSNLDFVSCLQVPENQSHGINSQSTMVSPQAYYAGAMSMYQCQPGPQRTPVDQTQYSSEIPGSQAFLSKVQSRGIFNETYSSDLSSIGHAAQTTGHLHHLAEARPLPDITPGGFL
Experimental: [^3H]TCDD specific binding to wild-type or mutant mAhRs synthesized in vitro using the Promega TNT Quick coupled transcription/translation rabbit reticulocyte lysate kit (Madison, WI) was carried out as previously described. [^3H]TCDD specific binding was determined by subtracting the amount of [^3H]TCDD bound to unprogrammed lysate (nonspecific binding) from the total amount of [^3H]TCDD binding to lysate containing in vitro expressed AhR. The amount of [^3H]TCDD specific binding remaining in the presence of the indicated competitor chemical was expressed as a percent of the total [^3H]TCDD specific binding. The relative binding affinity (IC50) of each chemical was determined from concentration-dependent competitive inhibition curves obtained using [^3H]TCDD and increasing concentrations of each test chemical and the mean IC50 value was determined using three-parameter non-linear regression.

L309A mutant AhR = target: T3, L309A mutant AhR (Mus musculus, UniProt P30561, L309A); assay: AhR DNA binding (gel retardation) assay, L309A mutant AhR; type: biochemical; conditions: L309A substitution; relative to wt mAhR activated by TCDD; single maximal ligand concentration
T3 construct: made in house; host or cells: in vitro transcription/translation (rabbit reticulocyte lysate)
T3 sequence (P30561 10-848 L309A): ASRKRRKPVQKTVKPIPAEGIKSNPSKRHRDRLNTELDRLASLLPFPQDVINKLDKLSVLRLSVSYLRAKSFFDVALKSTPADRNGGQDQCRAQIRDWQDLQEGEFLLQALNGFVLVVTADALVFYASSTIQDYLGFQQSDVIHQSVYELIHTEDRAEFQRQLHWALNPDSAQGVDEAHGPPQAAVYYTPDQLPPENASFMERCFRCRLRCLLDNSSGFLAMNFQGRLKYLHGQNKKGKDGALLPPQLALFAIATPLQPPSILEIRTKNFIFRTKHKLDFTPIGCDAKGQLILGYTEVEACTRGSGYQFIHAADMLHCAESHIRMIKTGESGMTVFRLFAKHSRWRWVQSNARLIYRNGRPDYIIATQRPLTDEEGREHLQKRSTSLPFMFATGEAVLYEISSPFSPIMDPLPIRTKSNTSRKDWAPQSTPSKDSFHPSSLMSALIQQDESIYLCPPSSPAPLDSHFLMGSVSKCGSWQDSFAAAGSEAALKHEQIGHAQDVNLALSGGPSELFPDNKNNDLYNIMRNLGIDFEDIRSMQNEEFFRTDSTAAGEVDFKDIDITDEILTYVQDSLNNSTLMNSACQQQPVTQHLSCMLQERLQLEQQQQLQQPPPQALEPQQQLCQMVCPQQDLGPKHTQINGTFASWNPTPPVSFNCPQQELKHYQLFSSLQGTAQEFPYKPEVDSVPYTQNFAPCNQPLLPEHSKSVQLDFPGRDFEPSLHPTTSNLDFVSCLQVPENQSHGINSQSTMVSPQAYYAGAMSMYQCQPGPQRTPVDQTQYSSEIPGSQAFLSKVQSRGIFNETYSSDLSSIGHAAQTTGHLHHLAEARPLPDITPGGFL
T3 sequence (P53762 whole entry partner): as the sequence (P53762 whole entry partner, one chain of several) above
Experimental: as §1

L302A mutant AhR = target: T4, L302A mutant AhR (Mus musculus, UniProt P30561, L302A); assay: AhR DNA binding (gel retardation) assay, L302A mutant AhR; type: biochemical; conditions: L302A mutation; single maximal ligand concentration; in words
T4 construct: made in house; host or cells: in vitro transcription/translation (rabbit reticulocyte lysate)
T4 sequence (P30561 10-848 L302A): T2 sequence (P30561 10-848) with L293A
Experimental: as §1

[3] = Table S1, read-out: AhR DNAB -LogEC50 (converted)
[4] = Table S1, wild-type mAhR, mean of nine independent reactions, read-out: AhR LB IC50
[5] = competition with [3H]TCDD, wild-type mAhR, values in text, read-out: relative AhR ligand binding affinity (IC50)
[6] = gel retardation, values in text, read-out: relative potency to stimulate AhR DNA binding in vitro (EC50)
[7] = Table S1, mean of nine independent reactions, read-out: AhR DNAB EC50

SMILES	EC50 (mAhR [1]; [3])	IC50 (mAhR [2]; [4])	IC50 (mAhR [2]; [5])	EC50 (mAhR [1]; [6])	ligand-induced AhR DNA binding (L309A mutant AhR)	EC50 (mAhR [1]; [7])	ligand-stimulated AhR DNA binding (L302A mutant AhR)	EC50 (mAhR [1]; AhR DNAB EC50, Table S1, mean of nine independent reactions)	EC50 (mAhR [1]; relative potency to stimulate AhR DNA binding in vitro (EC50), gel retardation, values in text)	IC50 (mAhR [2])	IC50 (mAhR [2]; Table S1, wild-type mAhR, read-out: AhR LB -LogIC50 (converted))
Cc1ccc2cc3c(ccc4ccccc43)c3c2c1CC3 [3MC, 3-methylcholanthrene]	6.03 nM	1.58 nM	1.6 nM								
O=c1cc(-c2ccccc2)oc2ccc3ccccc3c12 [BNF]		7.24 nM	7.2 nM	138 nM							
c1ccc2c(c1)cc1ccc3cccc4ccc2c1c34 [BaP, Benzo(a)pyrene]			617 nM	39 nM	little to no	38.9 nM	eliminated or greatly reduced				
c1ccc2c(c1)ccc1cc3c(ccc4ccccc43)cc12 [DBA, dibenz(a,h)anthracene]	3.98 nM		7.6 nM			4.02 nM					
O=Cc1c2[nH]c3ccccc3c2cc2[nH]c3ccccc3c12 [FICZ, 6-formylindolo[3,2-b]carbazole]		1.02 nM	1 nM	4.25 nM							
Clc1ccc(-c2cc(Cl)c(Cl)c(Cl)c2)cc1Cl [PCB126, 3,3′4,4′5-pentachlorobiphenyl]		5.89 nM	5.9 nM	6.5 nM		6.51 nM					
Clc1cc2c(cc1Cl)Oc1cc(Cl)c(Cl)cc1O2 [TCDD, 2,3,7,8-tetrachlorodibenzo-p-dioxin]			1 nM		less than 25%		eliminated or greatly reduced	7.53 nM	7.5 nM	1 nM	
Clc1cc2oc3cc(Cl)c(Cl)cc3c2cc1Cl [TCDF, 2,3,7,8-tetrachlorodibenzofuran]		20.1 nM		4.5 nM	little to no	4.55 nM	eliminated or greatly reduced				20 nM
